# Values of other authors as cited in US20030022912A1, “Rapid-onset medicament for treatment of sexual dysfunction” (priority 2001, published 2003).
# Conditions: human subjects; sublingual administration; drug as free base except where a footnote notes a salt
row,Compound,sublingual Tmax [h]
1,CN(C)CCCN1c2ccccc2CCc2ccc(Cl)cc21 [clomipramine],1.5
2,O=[N+]([O-])OCC(CO[N+](=O)[O-])O[N+](=O)[O-] [nitroglycerin],0.05
3,CCCc1nn(C)c2c(=O)[nH]c(-c3cc(S(=O)(=O)N4CCN(C)CC4)ccc3OCC)nc12 [sildenafil],1
4,CN1CCc2cccc3c2[C@H]1Cc1ccc(O)c(O)c1-3 [apomorphine],1.02
5,CC(C)NCC(O)c1ccc(NS(C)(=O)=O)cc1 (centres unmarked) [sotalol],2.1
6,CN1C(=O)C(O)N=C(c2ccccc2)c2cc(Cl)ccc21 (centres unmarked) [temazepam],1.08
7,COc1c2occc2cc2ccc(=O)oc12 [methoxsalen],0.417
8,C#CCN(C)[C@H](C)Cc1ccccc1 [selegiline],0.167
